pIC50: −log10 of the molar value. Ends that are not written are not given here. PGA = not defined here
Key:
[1] = system: NCAM-expressing Mel-526 human melanoma cells; test: Binding to NCAM-expressing Mel-526 cells; assay type: cell-based
[2] = system: ES-2 ovarian carcinoma cells; test: ES-2 cell proliferation assay (72 hours); assay type: cell-based, human
Method: ES-2 human ovarian carcinoma cells were purchased from the ATCC.
(§1) After incubation cell viability was determined by MTT assay.
(§2) In an exemplary procedure, selected inhibition concentration values (e.g., IC40, IC60 and IC80) of PTX, DOX and combinations thereof from a respective cell proliferation assay were collected. The selected inhibition concentration values of DOX and PTX were marked on X and Y axes respectively and a line which represents additive effect was drawn between each inhibitory concentration (IC). The combination index (CI) of each treatment was calculated according to the classic isobologram equation CI=[(D)1/(Dx)1]+[(D)2/(Dx)2].
The effect of DOX and PTX combinations on viability of ES2 and Saos2 cells was examined. Cells were treated with PTX alone, DOX alone, varying concentrations of DOX with a set concentration of PTX (10 or 50 nM for ES2, 1 nM for Saos2) or varying concentrations of PTX with a set concentration of DOX (10 or 50 nM). IC20, IC40 and IC60 values (growth inhibition by 20, 40 and 60% respectively) were derived from the growth charts and combination index (CI) values were calculated.
The activity of PGA-PTX-DOX conjugate (Route 1, see, FIG. 18) and of PGA-PTX-DOX conjugate (Route 2, see, FIG. 19D) was examined in vitro on proliferation of ES-2 ovarian carcinoma cells.
(§3) The effect of DOX and PTX treatments on proliferation of ES2 and SK N MC cells after sorting to NCAM+/− and/or on unsorted cells was examined, to test whether NCAM+ cells are more resistant to chemotherapeutic drugs.

HUVECs = test: HUVEC proliferation assay (MTT, 72 hours); assay type: cell-based, human
Method: Human umbilical vein endothelial cells (HUVECs) were isolated from umbilical cords and were cultured in EGM-2 media.
as §1
(§4) For evaluating anti-proliferative activity of a combination of PTX and DOX, cells were treated with varying concentrations of DOX with a set concentration of PTX or varying concentrations of PTX with a set concentration of DOX.
Same procedure was followed for other drugs and combination treatments.
as §2
The effect of PTX at various concentrations (0.0001, 0.001, 0.01, 0.1, 1, 10, 100, 1000, and 10,000 nM), and of doxorubicin at various concentrations (0.001, 0.001, 0.01, 0.1, 1, 10, 100, 1000, 10,000, 100,000 nM) on the proliferation of HUVEC p3 cells was tested. The obtained data is presented in FIG. 1A for PTX and in FIG. 1B for DOX.
For evaluating the effect of the combination treatment, 0.1 or 1 nM DOX with various concentrations of PTX and 0.1 or 1 nM PTX with various concentrations of DOX were tested.
The effect of PTX at various concentrations, TNP-470 at various concentrations and of various combinations of a set concentration of PTX and variable concentrations of TNP-470 and a set concentration of TNP-470 and variable concentrations of PTX, on proliferation of HUVECs, was tested. Similar assays were performed in the presence of 10,000 nM alendronate. The obtained data is presented in FIG. 7A (no alendronate) and in FIG. 7B (in the presence of alendronate).
The effect of the PGA-PTX-DOX conjugate (Route 1, see, FIG. 18) on HUVECs proliferation was tested and compared to the free drugs, each alone and in combination.

MDA-MB-231 cells [3] = test: MDA-MB-231 cell proliferation assay (72 hours); assay type: cell-based, human; conditions: for IC20 / IC 40 / IC 60: MDA-MB-231, single drug
Method: Human MDA-MB-231 cells were purchased from American Tissue Culture Collection (ATCC), and were cultured in DMEM supplemented with 10% FBS, 100 μg/ml penicillin, 100 U/ml streptomycin, 12.5 U/ml nystatin. All Cells were grown at 37° C., 5% CO2.
(§5) In an exemplary procedure, cells were plated onto 96-well plates in appropriate complete medium for each cell line as described above, and incubated for 24 hours (37° C.; 5% CO2). On the following day cells were treated with e.g., paclitaxel at various concentrations (e.g., 0.0001, 0.001, 0.01, 0.1, 1, 10, 100, 1000, 10,000 nM) or, e.g., doxorubicin at various concentrations (e.g., 0.001, 0.001, 0.01, 0.1, 1, 10, 100, 1000, 10,000, 100,000 nM) for 72 hours. After incubation cell viability was determined by MTT assay.
as §4
Selected inhibition concentration values (e.g., IC50, IC40, IC60 and IC80 values (growth inhibition by 50, 40, 60 and 80% respectively) were derived from the obtained growth charts.
as §2
The effect of PTX, DOX and combinations thereof on the proliferation of human MDA-MB-231 cells was tested.
FIG. 6A presents the results obtained for PTX and DOX, each alone, at various concentrations within a range of 0.01-10000 nM, and for various concentrations of PTX with 20 nM DOX, and for various concentrations of DOX with 1 nM PTX. […] Data represents mean±SD.
In order to evaluate the combination treatment effect, data from combination treatment results were collected, analyzed and calculated according to CI equations. Combination treatments I (PTX+DOX 20 nM) and II (DOX+PTX 1 nM) inhibited MDA-MB-231 cells proliferation of IC 20, 40, 60 at 0.8, 4, 25 and 4, 150, 700 nM respectively.
The activity of a PGA-PTX-DOX conjugate (Route 2, see, FIG. 19D) was examined in vitro on proliferation of MDA-MB-231 human breast cancer cells. Cells were incubated with the conjugates PGA-PTX-DOX, PGA-PTX, PGA-DOX and combination of PGA-PTX and PGA-DOX (in the same ratio as on the PGA-PTX-DOX conjugate), the free drugs PTX, DOX and their combination (in the same ratio as on the PGA-PTX-DOX conjugate) and with PGA for 72 hours.

SK N MC cells = test: SK N MC cell proliferation assay after sorting to NCAM+/-; assay type: cell-based
Method: as §5
Cells were harvested and labeled as described above, and resuspended in the appropriate cell culture medium (according to cell type) with 5% FBS. Cells were filtrated with 100 μm cell strainer before sorting. Sorted cells were collected into tubes containing complete medium with 0.5 mg/ml gentamycin (Biological Industries, Israel). All work was done in sterile conditions.
as §3

MDA-MB-231 cells [4] = test: Internalization and intracellular release of DOX, confocal microscopy; assay type: cell-based, human; conditions: 400 nM DOX-equivalent
Method: Internalization and intracellular release of DOX from the conjugates was evaluated by confocal microscopy (Leica SP5). MDA-MB-231 cells were incubated with free DOX and DOX-containing conjugates (PGA-DOX, PGA-PTX-DOX) at 400 nM equivalent concentrations for 20 minutes, 2, 6 or 24 hours. Following incubation, cells were washed, fixed with 4% PFA and mounted on glass slides using Prolong® Gold antifade reagent with DAPI (4′-6-Diamidino-2-phenylindole) (Invitrogen) for nucleus. DOX was excited at 488 nm and its emission was recorded at 550-700 nm.

Saos-2 cells = test: NTP binding to Saos2 cells (confocal microscopy); assay type: cell-based, human; conditions: fluorescently labeled peptides
Method: Cell specificity and uptake of the fluorescently labeled peptides was monitored utilizing a Zeiss Meta LSM 510 confocal imaging system. Cells were plated on glass slides and incubated overnight. The following day cells were incubated with 100 μM of CF-NTP or CF-scrambled peptide for 30 minutes at 37° C., washed several times with PBS, fixated with 4% paraformaldehyde, stained with Hoechst stain and mounted on slides. In order to examine intracellular trafficking of the peptide, cells were incubated with the peptides in serum free medium, washed several times with cold PBS and incubated with […] AlexaFluor 594 human transferrin for 1 h at 37° C. Cells were washed several times with PBS, fixated with 4% PFA, stained with Hoechst stain and mounted on slides.
Binding of NTP (SEQ ID NO:1) to Saos-2 cells, compared to binding of sNTP (SEQ ID NO:2), was examined by confocal microscopy. FITC-labeled targeting peptides were used. […] In experiments with transferrin, peptide was seen as intracellular aggregates or vesicles, though not colocalized with transferrin.

ES2 cells = test: Binding to ES2 cells (FACS); assay type: cell-based, human
Method: Cells were washed with PBS, harvested using a cell scraper and labeled by incubation with APC-conjugated CD-56 antibody (Biolegend) for 45 min at 4° C. in the dark. Cells were washed three times with PBS and filtrated with 100 μm cell strainer (BD Falcon).
Binding of C3 (SEQ ID NO:3) to ES2 cells, and competition of binding of the NCAM-specific antibody APC-conjugated anti-human CD56 (NCAM) (BioLegend) and bFGF was examined by FACS.
PGA and PGA-C3 were labeled with FITC on the N-terminal of the PGA chain. Binding to ES-2 cells was examined by FACS.

GASKKPKRNIKA [C3, NCAM targeting peptide C3 with added N-terminal glycine]
binding [1]: 50%

CC(=O)O[C@H]1C(=O)[C@@]2(C)[C@H]([C@H](OC(=O)c3ccccc3)[C@]3(O)C[C@H](OC(=O)[C@H](O)[C@@H](NC(=O)c4ccccc4)c4ccccc4)C(C)=C1C3(C)C)[C@]1(OC(C)=O)CO[C@@H]1C[C@@H]2O [PTX, Paclitaxel]
pIC50 ([2]; Homo sapiens, ES-2, ES2 cells sorted NCAM+): 7.15
pIC50 ([2]; Homo sapiens, ES-2, ES2 cells sorted NCAM−): 7.05
pIC50 ([2]; Homo sapiens, ES-2, ES2 cells unsorted): 7.15
pIC50 ([2]; Homo sapiens, Ovarian carcinoma cell, 72 h, ES-2, 72 hours, conjugates of Route 2 (FIG. 19D), three separate experiments): 8.22
pIC50 (HUVECs; Homo sapiens, HUVEC, HUVEC p3, PGA-PTX-DOX is the Route 1 conjugate (FIG. 18)): 9.00
pIC50 (HUVECs; Homo sapiens, HUVEC, HUVEC proliferation, drug alone or varied with a set concentration of the other drug): 8.15
pIC50 (MDA-MB-231 cells [3]; Homo sapiens, MDA-MB-231, 72 hours, PTX- and DOX-equivalent concentrations, Route 2 conjugate (FIG. 19D)): 8.70
IC20 (MDA-MB-231 cells [3]; Homo sapiens): 2.5 nM
IC 40 (MDA-MB-231 cells [3]): 7 nM
IC 60 (MDA-MB-231 cells [3]): 100 nM
pIC50 (SK N MC cells; Homo sapiens, SK N MC cells unsorted): 7.35

GASKKPAANIKA [C3ala, control peptide]
binding [1]: 20%

COc1cccc2c1C(=O)c1c(O)c3c(c(O)c1C2=O)C[C@@](O)(C(=O)CO)C[C@@H]3O[C@H]1C[C@H](N)[C@H](O)[C@H](C)O1 [DOX, doxorubicin]
pIC50 ([2]; ES2 cells sorted NCAM+): 6.52
pIC50 ([2]; ES2 cells sorted NCAM−): 6.82
pIC50 ([2]; ES2 cells unsorted): 6.60
pIC50 ([2]; ES-2, 72 hours, conjugates of Route 2 (FIG. 19D), three separate experiments): 7.60
pIC50 (HUVECs; HUVEC p3, PGA-PTX-DOX is the Route 1 conjugate (FIG. 18)): 8.15
pIC50 (HUVECs; HUVEC proliferation, drug alone or varied with a set concentration of the other drug): 7.40
IC20 (MDA-MB-231 cells [3]): 60 nM
IC 40 (MDA-MB-231 cells [3]): 250 nM
IC 60 (MDA-MB-231 cells [3]): 950 nM
cell internalization (MDA-MB-231 cells [4]): rapidly internalized in the cells
incubation time after which DOX is accumulated in the nucleus (MDA-MB-231 cells [4]): 6 h
pIC50 (SK N MC cells; SK N MC cells sorted NCAM+): 7.05
pIC50 (SK N MC cells; SK N MC cells sorted NCAM−): 7.40
pIC50 (SK N MC cells; SK N MC cells unsorted): 7.30

GESDDEND [scrambled peptide]
binding to cells (Saos-2 cells): does not

PGA-C3: PGA conjugated to C3 peptide (SEQ ID NO:3) through the N-terminal amine ({PGA}-GASKKPKRNIKA; reading uncertain)
binding to cells (ES2 cells; ES-2, FITC-labeled polymers): bound more strongly than non-targeted PGA and similarly to free C3 peptide

GDDSDEEN [NTP, NCAM-targeting peptide]
binding to cells (Saos-2 cells): binds to the cells

CF-labeled C3: C3 (SEQ ID NO:3) labeled at the N-terminal with 5(6)-carboxyfluorescein ({5(6)‑carboxyfluorescein}-GASKKPKRNIKA)
binding to cells (ES2 cells; ES2, CF-labeled peptide alone): bound at levels much higher than NCAM expression
binding when incubated with NCAM antibody or bFGF (ES2 cells; ES2, competition): its binding decreased

From patent publication US10155047B2, “Polymers having therapeutically active agents conjugated thereto, processes of preparing same and uses thereof” (Ramot at Tel-Aviv University Ltd., priority 2012, dated 2018)
